# In article PMC9127750, “Structure-based design of CDC42 effector interaction inhibitors for the treatment of cancer” (Cell reports, 2022):
# Tested on: WM3248 melanoma cells, 486 antibodies
# Assay: Reverse phase protein arrays (RPPA);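 for RPPA ACC1.R.C: ratio of treated to vehicle (0 µM) normalized linear protein signal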;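 for RPPA AMPK.a2 pS345.R.V: ratio of treated to vehicle (0 µM) normalized linear protein signal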;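 for RPPA AMPKa pT172.R.C: ratio of treated to vehicle (0 µM) normalized linear protein signal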;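 for RPPA ASNS.R.V: ratio of treated to vehicle (0 µM) normalized linear protein signal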;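 for RPPA AceCS1.R.V: ratio of treated to vehicle (0 µM) normalized linear protein signal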;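 for RPPA Akt1.R.V: ratio of treated to vehicle (0 µM) normalized linear protein signal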;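 for RPPA Atg5.R.C: ratio of treated to vehicle (0 µM) normalized linear protein signal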;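 for RPPA Bim.R.V: ratio of treated to vehicle (0 µM) normalized linear protein signal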
# Assay type: cell-based, Human
# Details: 5 uM
# From the text: Pellets were snap frozen in liquid nitrogen and shipped to MD Anderson Cancer Center core RPPA facility for RPPA analysis (Table S5). Three biological replicates for each sample were generated.
# Nomenclatures on the RPPA heatmaps: name_of_antibody.species_of_antibody.status_of_antibody. V - antibody validated; C - validation of antibody in progress; Q - antibody nonspecific; E – under evaluation; antibodies raised in M - mouse, G - goat, R - rabbit, or T - rat.
smiles,measurement,setting,value
"CN(C)c1cccc(Nc2cc(-c3ccccc3)nc(C3CCNCC3)n2)c1 [ARN22089, N1,N1-dimethyl-N3-(6-phenyl-2-(piperidin-4-yl)pyrimidin-4-yl)benzene-1,3-diamine]",RPPA MYH11.R.C Average,,0.914
same,RPPA Myosin.IIa.R.C Average,,0.843
same,RPPA Myosin.IIa_pS1943.R.V Average,,0.844
same,RPPA Myt1.R.C Average,,1.051
same,RPPA N.Cadherin.R.V Average,,1.019
same,RPPA N.Ras.M.V Average,,1.035
same,RPPA NAPSIN.A.R.C Average,,1.080
same,RPPA NDRG1_pT346.R.V Average,,0.957
same,RPPA NDUFB4.R.V Average,,0.959
same,RPPA NRF2.R.C Average,,1.058
same,RPPA Notch1.R.V Average,,0.994
same,RPPA Notch1.cleaved.R.V Average,,0.989
same,RPPA P.Cadherin.R.C Average,,1.050
same,RPPA PAI.1.M.V Average,,0.977
same,RPPA PAICS.R.C Average,,0.899
same,RPPA PAK1.R.V Average,,1.006
same,RPPA PAK4.R.V Average,,0.986
same,RPPA PAK_pT423_T402.R.C Average,,0.921
same,RPPA PAR.R.C Average,,1.327
same,RPPA PARG.R.C Average,,1.012
same,RPPA PARP.R.V Average,,1.023
same,RPPA PAX6.R.V Average,,1.030
same,RPPA PAX8.R.C Average,,0.962
same,RPPA PCNA.M.C Average,,0.948
same,RPPA PD.1.R.V Average,,0.992
same,RPPA PD.L1.R.C Average,,1.064
same,RPPA PDH.M.V Average,,1.049
same,RPPA PDHA1.R.V Average,,1.079
same,RPPA PDHK1.R.C Average,,1.057
same,RPPA PDK1_pS241.R.V Average,,1.138
same,RPPA PEA.15.R.V Average,,0.904
same,RPPA PEA.15_pS116.R.V Average,,1.018
same,RPPA PERK.R.V Average,,0.925
same,RPPA PGM1.R.V Average,,0.979
same,RPPA PHGDH.R.C Average,,1.081
same,RPPA PHLPP.R.V Average,,0.922
same,RPPA PI3K.p85.R.C Average,,0.987
same,RPPA PI3K.p110.a.R.C Average,,1.057
same,RPPA PI3K.p110.b.M.C Average,,0.980
same,RPPA PKA.a.R.V Average,,1.013
same,RPPA PKC.a.b.II_pT638_T641.R.V Average,,0.925
same,RPPA PKC.b.II_pS660.R.V Average,,1.162
same,RPPA PKCa.R.V Average,,1.462
same,RPPA PKM2.R.C Average,,0.954
same,RPPA PLC.gamma1.R.V Average,,0.970
same,RPPA PLC.gamma1_pS1248.R.V Average,,1.060
same,RPPA PLC.gamma2_pY759.R.V Average,,0.976
same,RPPA PLK1.R.C Average,,0.920
same,RPPA PMS2.R.V Average,,0.940
same,RPPA PR.R.V Average,,1.032
same,RPPA PRAS40.M.C Average,,0.991
same,RPPA PRAS40_pT246.R.V Average,,1.028
same,RPPA PRC1_pT481.R.C Average,,0.944
same,RPPA Paxillin.R.C Average,,0.977
same,RPPA Pdcd4.R.C Average,,1.156
same,RPPA Porin.M.V Average,,0.936
same,RPPA p21.R.C Average,,1.048
same,RPPA p27.Kip1.R.C Average,,0.948
same,RPPA p27_pT157.R.C Average,,0.943
same,RPPA p27_pT198.R.V Average,,1.103
same,RPPA p38.MAPK.R.V Average,,1.062
same,RPPA p38.MAPK._pT180_Y182.R.V Average,,1.580
same,RPPA p38.a.M.V Average,,0.984
same,RPPA p44.42.MAPK.R.V Average,,0.980
same,RPPA p53.R.C Average,,1.052
same,RPPA p70.S6K1.R.V Average,,0.998
same,RPPA p70.S6K_pT389.R.V Average,,1.143
same,RPPA p90RSK_pT573.R.C Average,,0.930
same,RPPA A.Raf.R.V,5W1,1.057
same,RPPA A.Raf_pS299.R.C,5W1,0.952
same,RPPA ACC1.R.C,5W1,1.201
same,RPPA ACC_pS79.R.V,5W1,1.224
same,RPPA ACLY_pS455.R.V,5W1,1.273
same,RPPA ACSL1.R.V,5W1,0.847
same,RPPA ACVRL1.R.C,5W1,0.930
same,RPPA ADAR1.M.V,5W1,0.910
same,RPPA ALKBH5.R.V,5W1,0.866
same,RPPA AMPK.a2_pS345.R.V,5W1,1.146
same,RPPA AMPKa.R.C,5W1,1.108
same,RPPA AMPKa_pT172.R.C,5W1,2.494
same,RPPA AR.R.V,5W1,1.056
same,RPPA ARID1A.R.C,5W1,0.880
same,RPPA ASNS.R.V,5W1,0.847
same,RPPA ATM.R.V,5W1,1.285
same,RPPA ATM_pS1981.R.V,5W1,0.930
same,RPPA ATP5A.M.C,5W1,0.983
same,RPPA ATP5H.R.V,5W1,0.890
same,RPPA ATR.R.V,5W1,0.910
same,RPPA ATRX.R.C,5W1,1.060
same,RPPA ATR_pS428.R.C,5W1,1.111
same,RPPA AceCS1.R.V,5W1,0.974
same,RPPA Akt1.R.V,5W1,1.150
same,RPPA Akt1_pS473.R.V,5W1,1.251
same,RPPA Akt2.R.V,5W1,1.156
same,RPPA Akt2_pS474.R.C,5W1,1.400
same,RPPA Akt.R.V,5W1,1.121
same,RPPA Akt_pS473.R.V,5W1,1.390
same,RPPA Akt_pT308.R.V,5W1,1.046
same,RPPA Ambra1_pS52.R.C,5W1,0.943
same,RPPA Annexin.VII.M.V,5W1,0.883
same,RPPA Atg4B.R.C,5W1,1.033
same,RPPA Atg5.R.C,5W1,1.001
same,RPPA Atg7.R.V,5W1,0.986
same,RPPA Aurora.A.R.C,5W1,0.575
same,RPPA Aurora.ABC_pT288_pT232_pT198.R.C,5W1,0.881
same,RPPA Aurora.B.R.V,5W1,0.940
same,RPPA Axl.R.V,5W1,1.329
same,RPPA B7.H3.R.C,5W1,0.986
same,RPPA B7.H4.R.C,5W1,1.110
same,RPPA B.Raf.R.C,5W1,1.153
same,RPPA BAP1.M.V,5W1,0.943
same,RPPA BCL2A1.R.V,5W1,1.060
same,RPPA BMK1.Erk5_pT218_Y220.R.V,5W1,0.857
same,RPPA BRCA1.M.C,5W1,0.962
same,RPPA BRD4.R.V,5W1,0.959
same,RPPA Bad_pS112.R.V,5W1,1.171
same,RPPA Bak.R.C,5W1,1.077
same,RPPA Bax.R.V,5W1,0.955
same,RPPA Bcl2.R.C,5W1,0.855
same,RPPA Beclin.R.C,5W1,0.863
same,RPPA BiP.GRP78.M.C,5W1,0.936
same,RPPA Bim.R.V,5W1,1.056
same,RPPA X4E.BP1.R.V,5W1,1.448
same,RPPA X4E.BP1_pS65.R.V,5W1,0.917
same,RPPA X14.3.3.zeta.R.V,5W1,0.934
same,RPPA X14.3.3βR.V,5W1,0.934
same,RPPA X53BP1.R.V,5W1,1.104
same,RPPA b.Actin.R.C,5W1,0.885
same,RPPA b.Catenin.R.V,5W1,0.881
same,RPPA b.Catenin_pT41_S45.R.V,5W1,1.099
same,RPPA c.Abl.R.V,5W1,1.227
same,RPPA c.Abl_pY412.R.C,5W1,1.133
same,RPPA c.IAP2.R.C,5W1,0.965
same,RPPA A.Raf.R.V,5W3,1.155
same,RPPA A.Raf_pS299.R.C,5W3,1.022
same,RPPA ACC1.R.C,5W3,0.834
same,RPPA ACC_pS79.R.V,5W3,0.685
same,RPPA ACLY_pS455.R.V,5W3,0.716
same,RPPA ACSL1.R.V,5W3,0.628
same,RPPA ACVRL1.R.C,5W3,0.953
same,RPPA ADAR1.M.V,5W3,1.141
same,RPPA ALKBH5.R.V,5W3,0.830
same,RPPA AMPK.a2_pS345.R.V,5W3,1.116
same,RPPA AMPKa.R.C,5W3,1.027
same,RPPA AMPKa_pT172.R.C,5W3,0.821
same,RPPA AR.R.V,5W3,1.102
same,RPPA ARID1A.R.C,5W3,1.193
same,RPPA ASNS.R.V,5W3,1.291
same,RPPA ATM.R.V,5W3,1.157
same,RPPA ATM_pS1981.R.V,5W3,0.939
same,RPPA ATP5A.M.C,5W3,0.233
same,RPPA ATP5H.R.V,5W3,0.791
same,RPPA ATR.R.V,5W3,0.960
same,RPPA ATRX.R.C,5W3,1.213
same,RPPA ATR_pS428.R.C,5W3,1.112
same,RPPA AceCS1.R.V,5W3,0.718
same,RPPA Akt1.R.V,5W3,0.726
same,RPPA Akt1_pS473.R.V,5W3,0.998
same,RPPA Akt2.R.V,5W3,0.876
same,RPPA Akt2_pS474.R.C,5W3,1.140
same,RPPA Akt.R.V,5W3,0.848
same,RPPA Akt_pS473.R.V,5W3,1.107
